According to PubChem BioAssay AID1919005 (Molecular Pharmacology Branch, DTP, NCI, 2023):

Test system: 855422-203-R-J1-PDC complex spheroid growth
Assay: Anticancer human tumor 855422-203-R-J1-PDC patient-derived bladder carcinoma cell line growth inhibition [AhR]
Settings: for IC50: curve of first compound; for viability, T/C: stronger effect = lower value
Summary of the method: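 Agents were dosed in half-log steps down from roughly clinical Cmax, or from 10 microM where Cmax was unknown, alone and with AhR antagonists. Read-out: percent test/control growth of tumor spheroids containing HUVEC and MSC stromal cells.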

[1] = second compound 0.1 µM, first compound 0.0316 µM
[2] = second compound 0.1 µM, first compound 0.1 µM
[3] = second compound 0.1 µM, first compound 0.316 µM
[4] = second compound 0.1 µM, first compound 1 µM
[5] = second compound 0.1 µM, first compound 3.16 µM
[6] = second compound 0.1 µM, first compound 10 µM
[7] = second compound 0.316 µM, first compound 0.0316 µM
[8] = second compound 0.316 µM, first compound 0.1 µM
[9] = second compound 0.316 µM, first compound 0.316 µM
[10] = second compound 0.316 µM, first compound 1 µM
[11] = second compound 0.316 µM, first compound 3.16 µM
[12] = second compound 0.316 µM, first compound 10 µM
[13] = second compound 1 µM, first compound 0.0316 µM
[14] = second compound 1 µM, first compound 0.1 µM
[15] = second compound 1 µM, first compound 0.316 µM
[16] = second compound 1 µM, first compound 1 µM
[17] = second compound 1 µM, first compound 3.16 µM
[18] = second compound 1 µM, first compound 10 µM
[19] = second compound 3.16 µM, first compound 0.0316 µM
[20] = second compound 3.16 µM, first compound 0.1 µM
[21] = second compound 3.16 µM, first compound 0.316 µM
[22] = second compound 3.16 µM, first compound 1 µM
[23] = second compound 3.16 µM, first compound 3.16 µM
[24] = second compound 3.16 µM, first compound 10 µM
[25] = second compound 10 µM, first compound 0.0316 µM
[26] = second compound 10 µM, first compound 0.1 µM
[27] = second compound 10 µM, first compound 0.316 µM
[28] = second compound 10 µM, first compound 1 µM
[29] = second compound 10 µM, first compound 3.16 µM
[30] = second compound 10 µM, first compound 10 µM
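Also: spheroids exposed to agents for seven days before readout.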
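For viability, T/C in this document: percent of DMSO vehicle control luminescence viability.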

In the case of `CC1(C)CCC(CN2CCN(c3ccc(C(=O)NS(=O)(=O)c4ccc(NCC5CCOCC5)c([N+](=O)[O-])c4)c(Oc4cnc5[nH]ccc5c4)c3)CC2)=C(c2ccc(Cl)cc2)C1` + Cc1cncc(-c2nc(NCCc3c[nH]c4ccccc34)c3ncn(C(C)C)c3n2)c1, the IC50 (second compound 0.1 µM) is reported as 6.14 µM, the IC50 (second compound 0.316 µM) is reported as 5.81 µM and the IC50 (second compound 1 µM) is reported as 5.45 µM. The IC50 (second compound 3.16 µM) was 4.53 µM, the IC50 (second compound 10 µM) was less than 0.0316 µM and the viability, T/C [1] was 93.9%. The viability, T/C [2] was 92.2%, the viability, T/C [3] was 98.1% and the viability, T/C [4] was 117%. The viability, T/C [5] was 108%, the viability, T/C [6] was 11.9% and the viability, T/C [7] was 94.2%. It also gave a viability, T/C [8] of 91.1%, a viability, T/C [9] of 85.8% and a viability, T/C [10] of 90.3%. For the same compound, the viability, T/C [11] was 98.2%, the viability, T/C [12] was 12.6% and the viability, T/C [13] was 83%. The viability, T/C [14] was 96.7%, the viability, T/C [15] was 83.7% and the viability, T/C [16] was 76.7%. For the same compound, the viability, T/C [17] was 84.8%, the viability, T/C [18] was 11.3% and the viability, T/C [19] was 76.2%. The viability, T/C [20] was 80.7%, the viability, T/C [21] was 77.7% and the viability, T/C [22] was 60.8%. The viability, T/C [23] was 69.5%, the viability, T/C [24] was 13.8% and the viability, T/C [25] was 38%. For the same compound, the viability, T/C [26] was 30.6%, the viability, T/C [27] was 22.1% and the viability, T/C [28] was 14.7%. The viability, T/C [29] was 24.5% and the viability, T/C [30] was 10.5%.
`CC(C)CC(NC(=O)C(Cc1ccccc1)NC(=O)c1cnccn1)B(O)O` (stereo not given) + Cc1ccccc1N=Nc1ccc(NC(=O)c2ccnn2C)c(C)c1 showed an IC50 (second compound 0.1 µM) of 0.00594 µM, an IC50 (second compound 0.316 µM) of 0.00586 µM and an IC50 (second compound 1 µM) of 0.00566 µM. For the same compound, the IC50 (second compound 3.16 µM) was 0.00519 µM, the IC50 (second compound 10 µM) was 0.00416 µM and the viability, T/C (second compound 0.1 µM, first compound 0.000949 µM) was 108%. The viability, T/C (second compound 0.1 µM, first compound 0.003 µM) was 135%, the viability, T/C (second compound 0.1 µM, first compound 0.00949 µM) was 0.86% and the viability, T/C (second compound 0.1 µM, first compound 0.03 µM) was 0.84%. It also gave a viability, T/C (second compound 0.1 µM, first compound 0.0949 µM) of 1.35%, a viability, T/C (second compound 0.1 µM, first compound 0.3 µM) of 0.12% and a viability, T/C (second compound 0.316 µM, first compound 0.000949 µM) of 118%. For the same compound, the viability, T/C (second compound 0.316 µM, first compound 0.003 µM) was 121%, the viability, T/C (second compound 0.316 µM, first compound 0.00949 µM) was 0.21% and the viability, T/C (second compound 0.316 µM, first compound 0.03 µM) was 0.02%. For the same compound, the viability, T/C (second compound 0.316 µM, first compound 0.0949 µM) was 0.02%, the viability, T/C (second compound 0.316 µM, first compound 0.3 µM) was 0.1% and the viability, T/C (second compound 1 µM, first compound 0.000949 µM) was 108%. For the same compound, the viability, T/C (second compound 1 µM, first compound 0.003 µM) was 115%, the viability, T/C (second compound 1 µM, first compound 0.00949 µM) was 0.18% and the viability, T/C (second compound 1 µM, first compound 0.03 µM) was 0.04%. The viability, T/C (second compound 1 µM, first compound 0.0949 µM) was 0.02%, the viability, T/C (second compound 1 µM, first compound 0.3 µM) was 0.11% and the viability, T/C (second compound 3.16 µM, first compound 0.000949 µM) was 100%. It also gave a viability, T/C (second compound 3.16 µM, first compound 0.003 µM) of 94.6%, a viability, T/C (second compound 3.16 µM, first compound 0.00949 µM) of 0.91% and a viability, T/C (second compound 3.16 µM, first compound 0.03 µM) of 0.03%. It also gave a viability, T/C (second compound 3.16 µM, first compound 0.0949 µM) of 0.09%, a viability, T/C (second compound 3.16 µM, first compound 0.3 µM) of 0.09% and a viability, T/C (second compound 10 µM, first compound 0.000949 µM) of 85%. For the same compound, the viability, T/C (second compound 10 µM, first compound 0.003 µM) was 69.6%, the viability, T/C (second compound 10 µM, first compound 0.00949 µM) was 0.28% and the viability, T/C (second compound 10 µM, first compound 0.03 µM) was 0.11%. The viability, T/C (second compound 10 µM, first compound 0.0949 µM) was 0.12% and the viability, T/C (second compound 10 µM, first compound 0.3 µM) was 0.16%.
For `COc1cc(Nc2ncc3c(n2)-c2ccc(Cl)cc2C(c2c(F)cccc2OC)=NC3)ccc1C(=O)O` + CC(CO)NC(=O)c1cc(-c2ccc(Cl)cc2)nn(-c2cnn(C)c2)c1=O, the IC50 (second compound 0.1 µM) was greater than 10 µM, the IC50 (second compound 0.316 µM) was 10 µM and the IC50 (second compound 1 µM) was greater than 10 µM. For the same compound, the IC50 (second compound 3.16 µM) was greater than 10 µM, the IC50 (second compound 10 µM) was greater than 10 µM and the viability, T/C [1] was 97%. For the same compound, the viability, T/C [2] was 93.6%, the viability, T/C [3] was 66% and the viability, T/C [4] was 57.6%. The viability, T/C [5] was 52.2%, the viability, T/C [6] was 46.1% and the viability, T/C [7] was 87.1%. For the same compound, the viability, T/C [8] was 107%, the viability, T/C [9] was 66.2% and the viability, T/C [10] was 55.2%. The viability, T/C [11] was 48%, the viability, T/C [12] was 48.1% and the viability, T/C [13] was 93.5%. The viability, T/C [14] was 104%, the viability, T/C [15] was 66.2% and the viability, T/C [16] was 61%. The viability, T/C [17] was 48.1%, the viability, T/C [18] was 45.9% and the viability, T/C [19] was 88.9%. For the same compound, the viability, T/C [20] was 90.6%, the viability, T/C [21] was 60.2% and the viability, T/C [22] was 58.5%. The viability, T/C [23] was 46.4%, the viability, T/C [24] was 47.2% and the viability, T/C [25] was 94.7%. The viability, T/C [26] was 79.9%, the viability, T/C [27] was 60.8% and the viability, T/C [28] was 50.6%. The viability, T/C [29] was 55.5% and the viability, T/C [30] was 46.3%.
